We go through 9 molecules from patent publication US4281009A, “Hydantoin derivatives” (Nippon Zoki Pharmaceutical Co., Ltd., priority 1978, dated 1981).

Structures are written as SMILES.

System in the first series: not listed separately
The series is described as follows: Acute toxicity test (LD50, Litchfield-Wilcoxon), mice. Conditions: mouse, in vivo, ip, female, intraperitoneal. The method, then:
(§1) Toxicity tests were carried out by intraperitoneal administration of the compound of the present invention to groups each comprising 10 ICR-strain mice and SD-strain rats. LD50 was calculated by the Litchfield-Wilcoxon method based on the number of death 72 hours after the administration.
`O=C1NC(=O)C(c2ccccc2)(c2ccccc2O)N1` (stereo not shown) [Compound 6, 5-(2-Hydroxyphenyl)-5-phenylhydantoin] returned an LD50 at 72 h of over 5000 mg/kg.

As for `O=C1NC(=O)C(c2cccc(O)c2)(c2cccc(O)c2)N1` [Compound 8, 5,5-Bis(3-hydroxyphenyl)hydantoin], the LD50 at 72 h came to 1270 mg/kg.

Regarding `CCCOc1ccccc1C1(c2ccccc2OCCC)NC(=O)NC1=O` [Compound 9, 5,5-Bis(2-propoxyphenyl)hydantoin], the LD50 at 72 h is over 5000 mg/kg.

Molecule `CCCOc1ccc(C2(c3ccc(OCCC)cc3)NC(=O)NC2=O)cc1` [Compound 10, 5,5-Bis(4-propoxyphenyl)hydantoin] returned an LD50 at 72 h of 3460 mg/kg.

With `COc1ccc(C2(c3ccc(O)cc3)NC(=O)NC2=O)cc1` (stereo not shown) [Compound 11, 5-(4-Hydroxyphenyl)-5-(4-methoxyphenyl)hydantoin], the LD50 at 72 h was found to be 3000 mg/kg.

In turn, `O=C1NC(=O)C(c2ccccc2OCc2ccccc2)(c2ccccc2OCc2ccccc2)N1` [Compound 12, 5,5-Bis(2-benzyloxyphenyl)hydantoin] came in with an LD50 at 72 h of over 5000 mg/kg.

`Cc1ccc(C2(c3ccc(C)cc3)NC(=O)NC2=O)cc1` [Compound 13, 5,5-Bis(4-methylphenyl)hydantoin] gave an LD50 at 72 h of over 5000 mg/kg.

Molecule `COc1ccc(C2(c3ccc(OC)cc3OC)NC(=O)NC2=O)cc1` (stereo not shown) [Compound 15, 5-(2,4-Dimethoxyphenyl)-5-(4-methoxyphenyl)hydantoin] had an LD50 at 72 h of over 5000 mg/kg.

Consider `COc1ccc(C2(c3ccc(OC)c(OC)c3)NC(=O)NC2=O)cc1` (stereo not shown) [Compound 16, 5-(3,4-Dimethoxyphenyl)-5-(4-methoxyphenyl)hydantoin], for which the LD50 at 72 h was over 5000 mg/kg.

Still in this series, the particulars now being: mouse, in vivo, ip, male, intraperitoneal.
Molecule `O=C1NC(=O)C(c2ccccc2)(c2ccccc2O)N1` (stereo not shown) [Compound 6, 5-(2-Hydroxyphenyl)-5-phenylhydantoin] registered an LD50 at 72 h of over 5000 mg/kg.

On to `O=C1NC(=O)C(c2cccc(O)c2)(c2cccc(O)c2)N1` [Compound 8, 5,5-Bis(3-hydroxyphenyl)hydantoin], for which the 50% lethal dose (LD50) at 72 h stood at 1350 mg/kg.

On to `CCCOc1ccccc1C1(c2ccccc2OCCC)NC(=O)NC1=O` [Compound 9, 5,5-Bis(2-propoxyphenyl)hydantoin], for which the median lethal dose (LD50) at 72 h was over 5000 mg/kg.

Turning to `CCCOc1ccc(C2(c3ccc(OCCC)cc3)NC(=O)NC2=O)cc1` [Compound 10, 5,5-Bis(4-propoxyphenyl)hydantoin], the LD50 at 72 h amounted to 3600 mg/kg.

`COc1ccc(C2(c3ccc(O)cc3)NC(=O)NC2=O)cc1` (stereo not shown) [Compound 11, 5-(4-Hydroxyphenyl)-5-(4-methoxyphenyl)hydantoin] displayed an LD50 at 72 h of over 3000 mg/kg.

As to `O=C1NC(=O)C(c2ccccc2OCc2ccccc2)(c2ccccc2OCc2ccccc2)N1` [Compound 12, 5,5-Bis(2-benzyloxyphenyl)hydantoin], the LD50 at 72 h is over 5000 mg/kg.

Regarding `Cc1ccc(C2(c3ccc(C)cc3)NC(=O)NC2=O)cc1` [Compound 13, 5,5-Bis(4-methylphenyl)hydantoin], the LD50 at 72 h was over 5000 mg/kg.

Molecule `COc1ccc(C2(c3ccc(OC)cc3OC)NC(=O)NC2=O)cc1` (stereo not shown) [Compound 15, 5-(2,4-Dimethoxyphenyl)-5-(4-methoxyphenyl)hydantoin] returned an LD50 at 72 h of over 5000 mg/kg.

As for `COc1ccc(C2(c3ccc(OC)c(OC)c3)NC(=O)NC2=O)cc1` (stereo not shown) [Compound 16, 5-(3,4-Dimethoxyphenyl)-5-(4-methoxyphenyl)hydantoin], the LD50 at 72 h was over 5000 mg/kg.

System in the next series: not listed separately
The series is described as follows: Acute toxicity test (LD50, Litchfield-Wilcoxon), rats. Conditions: rat, in vivo, ip, female, intraperitoneal. As to the method:
as §1
Consider `O=C1NC(=O)C(c2ccccc2)(c2ccccc2O)N1` (stereo not shown) [Compound 6, 5-(2-Hydroxyphenyl)-5-phenylhydantoin], for which the LD50 at 72 h was over 5000 mg/kg.

`O=C1NC(=O)C(c2cccc(O)c2)(c2cccc(O)c2)N1` [Compound 8, 5,5-Bis(3-hydroxyphenyl)hydantoin]: the 50% lethal dose (LD50) at 72 h was determined as 1660 mg/kg.

`CCCOc1ccccc1C1(c2ccccc2OCCC)NC(=O)NC1=O` [Compound 9, 5,5-Bis(2-propoxyphenyl)hydantoin] yielded a 50% lethal dose (LD50) at 72 h of over 5000 mg/kg.

`CCCOc1ccc(C2(c3ccc(OCCC)cc3)NC(=O)NC2=O)cc1` [Compound 10, 5,5-Bis(4-propoxyphenyl)hydantoin]: the LD50 at 72 h is 3800 to 4000 mg/kg.

Regarding `COc1ccc(C2(c3ccc(O)cc3)NC(=O)NC2=O)cc1` (stereo not shown) [Compound 11, 5-(4-Hydroxyphenyl)-5-(4-methoxyphenyl)hydantoin], the median lethal dose (LD50) at 72 h was over 5000 mg/kg.

For `O=C1NC(=O)C(c2ccccc2OCc2ccccc2)(c2ccccc2OCc2ccccc2)N1` [Compound 12, 5,5-Bis(2-benzyloxyphenyl)hydantoin], the median lethal dose (LD50) at 72 h was over 5000 mg/kg.

With `Cc1ccc(C2(c3ccc(C)cc3)NC(=O)NC2=O)cc1` [Compound 13, 5,5-Bis(4-methylphenyl)hydantoin], the median lethal dose (LD50) at 72 h is over 5000 mg/kg.

For the molecule `COc1ccc(C2(c3ccc(OC)cc3OC)NC(=O)NC2=O)cc1` (stereo not shown) [Compound 15, 5-(2,4-Dimethoxyphenyl)-5-(4-methoxyphenyl)hydantoin], the LD50 at 72 h was over 5000 mg/kg.

The molecule `COc1ccc(C2(c3ccc(OC)c(OC)c3)NC(=O)NC2=O)cc1` (stereo not shown) [Compound 16, 5-(3,4-Dimethoxyphenyl)-5-(4-methoxyphenyl)hydantoin] displayed an LD50 at 72 h of over 5000 mg/kg.

The series is the same for the next values; noted with them: rat, in vivo, ip, male, intraperitoneal.
In the case of `O=C1NC(=O)C(c2ccccc2)(c2ccccc2O)N1` (stereo not shown) [Compound 6, 5-(2-Hydroxyphenyl)-5-phenylhydantoin], the LD50 at 72 h was over 5000 mg/kg.

Consider `O=C1NC(=O)C(c2cccc(O)c2)(c2cccc(O)c2)N1` [Compound 8, 5,5-Bis(3-hydroxyphenyl)hydantoin], for which the LD50 at 72 h is 1800 mg/kg.

In turn, `CCCOc1ccccc1C1(c2ccccc2OCCC)NC(=O)NC1=O` [Compound 9, 5,5-Bis(2-propoxyphenyl)hydantoin] returned a 50% lethal dose (LD50) at 72 h of over 5000 mg/kg.

Molecule `CCCOc1ccc(C2(c3ccc(OCCC)cc3)NC(=O)NC2=O)cc1` [Compound 10, 5,5-Bis(4-propoxyphenyl)hydantoin] registered a 50% lethal dose (LD50) at 72 h of 4000 mg/kg.

In the case of `COc1ccc(C2(c3ccc(O)cc3)NC(=O)NC2=O)cc1` (stereo not shown) [Compound 11, 5-(4-Hydroxyphenyl)-5-(4-methoxyphenyl)hydantoin], the LD50 at 72 h is over 5000 mg/kg.

Take `O=C1NC(=O)C(c2ccccc2OCc2ccccc2)(c2ccccc2OCc2ccccc2)N1` [Compound 12, 5,5-Bis(2-benzyloxyphenyl)hydantoin]: the LD50 at 72 h is over 5000 mg/kg.

Turning to `Cc1ccc(C2(c3ccc(C)cc3)NC(=O)NC2=O)cc1` [Compound 13, 5,5-Bis(4-methylphenyl)hydantoin], the LD50 at 72 h was over 5000 mg/kg.

Turning to `COc1ccc(C2(c3ccc(OC)cc3OC)NC(=O)NC2=O)cc1` (stereo not shown) [Compound 15, 5-(2,4-Dimethoxyphenyl)-5-(4-methoxyphenyl)hydantoin], the LD50 at 72 h is over 5000 mg/kg.

`COc1ccc(C2(c3ccc(OC)c(OC)c3)NC(=O)NC2=O)cc1` (stereo not shown) [Compound 16, 5-(3,4-Dimethoxyphenyl)-5-(4-methoxyphenyl)hydantoin] registered an LD50 at 72 h of over 5000 mg/kg.

In a further series the test system is normal mice and SART stress mice. The series is described as follows: Analgesic effect, tail pressure method (Randall-Selitto's device). It counts as in vivo, mice (ddY-strain male). The following applies: Mus musculus, ip, 1 h, SART stress mice; intraperitoneal 100 mg/kg; 60 minutes. The method, then: 5.1 Tail pressure method:
Randall-Selitto's device for determining analgesic effect by pressure stimulation was used. […]. The compounds of the present invention or other comparative drugs were given thereto and analgesic effect was determined. The effect was judged by measuring pressure applied 60 minutes after the intraperitoneal administration of the compounds of the present invention. The pressure thus measured was divided by a pressure before the administration. The value thus obtained was compared with that of a control group (to which 10 ml./Kg of 0.5% sodium salt of carboxymethylcellulose or 0.5% Tween 80 was given). When the compounds of the present invention were given perorally and other comparative drugs were given, an average of the pressure at 30, 60, 90 and 120 minutes after the administration was employed for evaluating the effect.
For `O=C1NC(=O)C(c2ccccc2)(c2ccccc2O)N1` (stereo not shown) [Compound 6, 5-(2-Hydroxyphenyl)-5-phenylhydantoin], the change in vivo at 100 mg/kg stood at 62.7%.

Molecule `O=C1NC(=O)C(c2cccc(O)c2)(c2cccc(O)c2)N1` [Compound 8, 5,5-Bis(3-hydroxyphenyl)hydantoin] yielded a change in vivo at 100 mg/kg of 54.7%.

The same series, now with this note: Mus musculus, ip, 1 h, SART stress mice; intraperitoneal 200 mg/kg; 60 minutes.
Regarding `CCCOc1ccccc1C1(c2ccccc2OCCC)NC(=O)NC1=O` [Compound 9, 5,5-Bis(2-propoxyphenyl)hydantoin], the change in vivo at 200 mg/kg is 74.4%.

The series is the same for the next values; noted with them: Mus musculus, ip, 1 h, normal mice; intraperitoneal 100 mg/kg; 60 minutes.
`O=C1NC(=O)C(c2ccccc2)(c2ccccc2O)N1` (stereo not shown) [Compound 6, 5-(2-Hydroxyphenyl)-5-phenylhydantoin] yielded a change in vivo at 100 mg/kg of 38.1%.

Molecule `O=C1NC(=O)C(c2cccc(O)c2)(c2cccc(O)c2)N1` [Compound 8, 5,5-Bis(3-hydroxyphenyl)hydantoin] came in with a change in vivo at 100 mg/kg of 22.9%.

The same series, now with this note: Mus musculus, ip, 1 h, normal mice; intraperitoneal 200 mg/kg; 60 minutes.
Molecule `CCCOc1ccccc1C1(c2ccccc2OCCC)NC(=O)NC1=O` [Compound 9, 5,5-Bis(2-propoxyphenyl)hydantoin] yielded a change in vivo at 200 mg/kg of 21.3%.

In a further series the test system is ddY-strain male mice. The series is described as follows: Effect of prolongation of sleeping time (hexobarbital). Conditions: 50 mg/kg intraperitoneal. Format: in vivo. As to the method:
7. Effect of prolongation of sleeping time:
Groups of mice each comprising 10 ddY-strain male mice were used. Sodium salt of hexobarbital was given intraperitoneally. Thereafter, the period of time in which righting reflex disappeared was measured. The effect was evaluated on the basis of prolongation of time of disappearance of righting reflex by the intraperitoneal administration of the compounds of the present invention as compared with control mice.
Consider `CCCOc1ccccc1C1(c2ccccc2OCCC)NC(=O)NC1=O` [Compound 9, 5,5-Bis(2-propoxyphenyl)hydantoin], for which the “Effect of prolongation of sleeping time” value is given as 10.5%.

Regarding `CCCOc1ccc(C2(c3ccc(OCCC)cc3)NC(=O)NC2=O)cc1` [Compound 10, 5,5-Bis(4-propoxyphenyl)hydantoin], the “Effect of prolongation of sleeping time” value worked out at 17.0%.

Staying with this series, now noted: Mus musculus, ip, 100 mg/kg intraperitoneal.
The molecule `O=C1NC(=O)C(c2ccccc2)(c2ccccc2O)N1` (stereo not shown) [Compound 6, 5-(2-Hydroxyphenyl)-5-phenylhydantoin] came in with a change in vivo at 100 mg/kg of 30.6%.

With `O=C1NC(=O)C(c2cccc(O)c2)(c2cccc(O)c2)N1` [Compound 8, 5,5-Bis(3-hydroxyphenyl)hydantoin], the change in vivo at 100 mg/kg was found to be 16.9%.

Take `COc1ccc(C2(c3ccc(OC)cc3OC)NC(=O)NC2=O)cc1` (stereo not shown) [Compound 15, 5-(2,4-Dimethoxyphenyl)-5-(4-methoxyphenyl)hydantoin]: the change in vivo at 100 mg/kg came to 15.4%.

Still in this series, the particulars now being: Mus musculus, ip, 300 mg/kg intraperitoneal.
`O=C1NC(=O)C(c2ccccc2)(c2ccccc2O)N1` (stereo not shown) [Compound 6, 5-(2-Hydroxyphenyl)-5-phenylhydantoin]: the change in vivo at 300 mg/kg was found to be 33.7%.

Turning to `CCCOc1ccccc1C1(c2ccccc2OCCC)NC(=O)NC1=O` [Compound 9, 5,5-Bis(2-propoxyphenyl)hydantoin], the change in vivo at 300 mg/kg stood at 39%.

`Cc1ccc(C2(c3ccc(C)cc3)NC(=O)NC2=O)cc1` [Compound 13, 5,5-Bis(4-methylphenyl)hydantoin]: the change in vivo at 300 mg/kg stood at 14.1%.

With `COc1ccc(C2(c3ccc(OC)cc3OC)NC(=O)NC2=O)cc1` (stereo not shown) [Compound 15, 5-(2,4-Dimethoxyphenyl)-5-(4-methoxyphenyl)hydantoin], the change in vivo at 300 mg/kg stood at 23.9%.

`COc1ccc(C2(c3ccc(OC)c(OC)c3)NC(=O)NC2=O)cc1` (stereo not shown) [Compound 16, 5-(3,4-Dimethoxyphenyl)-5-(4-methoxyphenyl)hydantoin] had a change in vivo at 300 mg/kg of 20.8%.
